The target of the test is T1, hOCT2 (Homo sapiens, UniProt O15244).
T1 construct: expressed in transfected cells; host or cells: HEK-293 (293) cells, pEBTetD plasmid, doxycycline-induced
T1 sequence (O15244 1-555): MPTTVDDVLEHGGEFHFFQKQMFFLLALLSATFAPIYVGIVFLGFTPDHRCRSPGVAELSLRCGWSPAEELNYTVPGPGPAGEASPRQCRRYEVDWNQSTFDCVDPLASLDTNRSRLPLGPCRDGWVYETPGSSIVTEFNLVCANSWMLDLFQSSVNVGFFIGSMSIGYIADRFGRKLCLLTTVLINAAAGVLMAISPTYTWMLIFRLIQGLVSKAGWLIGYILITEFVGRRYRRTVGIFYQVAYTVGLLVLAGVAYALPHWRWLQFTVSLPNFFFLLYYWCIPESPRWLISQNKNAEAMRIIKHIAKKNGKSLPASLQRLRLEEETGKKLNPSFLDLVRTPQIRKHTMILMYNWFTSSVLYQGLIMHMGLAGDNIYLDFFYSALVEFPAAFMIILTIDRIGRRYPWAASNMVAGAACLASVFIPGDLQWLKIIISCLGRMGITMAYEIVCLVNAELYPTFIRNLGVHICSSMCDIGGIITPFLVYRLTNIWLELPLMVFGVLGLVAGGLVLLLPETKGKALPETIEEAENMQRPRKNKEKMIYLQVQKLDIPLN
The test is described as follows: Inhibition of hOCT2-mediated metformin uptake, stably transfected 293 cells. The test is classed as cell-based. The conditions noted are these: substrate 5 µM metformin, median (95% CI). The text has this:
We characterized the inhibitory potential of iohexol on major drug transporters recommended by regulatory agencies, which were previously assessed in a clinical transporter phenotyping cocktail study. These transporters include hOAT1, hOAT3, hOCT1, hOCT2, hMATE1, hMATE2K, human organic anion transporter polypeptides (hOATP)1B1, hOATP1B3, and human multidrug resistance protein (hMDR)1. Additionally, we investigated whether iohexol is a substrate for any of the renal transporters among these, including hOAT1/3, hOCT1/2, and hMATE1/2K. Cell‐based uptake assays were used to assess the activities of hOAT1/3, hOCT1/2, hMATE1/2K, and hOATP1B1/1B3. Inside‐out membrane vesicle uptake assays were used to evaluate the activity of hMDR1.
To determine the maximal inhibitory potential of iohexol, intracellular accumulation of a standard substrate was measured with and without the clinically relevant highest concentrations of iohexol. Control inhibitors were tested in each experiment.
In all subsequent in vitro studies, control experiments were conducted to validate the results. These included positive controls for substrates and inhibitors, as well as cells either without transporter expression or transfected with an empty vector, and control vesicles. Each condition, including cells or vesicles with the transporter and their respective controls, was analyzed in at least three replicates. For detailed information on materials, methods, and data analysis techniques used, refer to the Supporting Information. […]
R version 4.2.1 (R Foundation for Statistical Computing, Vienna, Austria) was used for statistical evaluations and data visualization. The data analysis approach for the in vitro study was detailed by Hsin CH et al..^1 In brief, for transport assays, the initial uptake rate was calculated by normalizing the substrate concentration to both the protein concentration and the incubation time for each dish or well. The transporter-mediated uptake rate (net uptake) was determined by performing an element-wise subtraction of uptake rates from different conditions. […]

With `CC(=O)N(CC(O)CO)c1c(I)c(C(=O)NCC(O)CO)c(I)c(C(=O)NCC(O)CO)c1I` (stereo not drawn) [iohexol], under “20 mM iohexol”, the “Inhibitory effect (% reduction of specific activity)” value is given as “no notable inhibitory effects”. Also, under “HEK293, 1 mM iohexol, read-out: Inhibitory effect (% reduction of specific activity)”, the inhibition at 1000 µM was -13%. Besides, the inhibition at 20000 µM (HEK293, 20 mM iohexol, read-out: Inhibitory effect (% reduction of specific activity)) was -23%.

These data come from publication PMC11788587, “Validating Low‐Dose Iohexol as a Marker for Glomerular Filtration Rate by In Vitro and In Vivo Studies” (Clinical and Translational Science, 2025).
